Laboratory results from patent US20080200555A1, “USE OF NOREPINEPHRINE REUPTAKE INHIBITORS FOR THE TREATMENT OF TIC DISORDERS” (priority 2001, published 2008).

Experiment: Case report: atomoxetine treatment of a person with ADHD and tics (Example 1)
Format: in vivo, human
Source text: A person presented with ADHD and tics. […] At baseline, the tics included multiple motor and multiple vocal tics, some complex or in bouts. Their vocal tics were especially problematic and disruptive, causing difficulties for the child at school, in social situations, and when the family went out in public (for example, to a restaurant). The clinical global impression-severity score (CGI-S) is a seven-point scale (1=normal, 7=very severely ill) that summarizes a clinician's overall impression about how severe a patient's illness is compared to other patients the clinician has treated. Based on the parent's report, the retrospective CGI-S score for the child's tics at baseline was 5, markedly ill. The YGTSS is the Yale Global Tic Severity Scale and summarizes the number, severity and frequency of a patient's tics. The minimum score on the YGTSS is zero and the maximum is 50. Based on the parent's description the patient's baseline YGTSS was about 30.
After about 2 to 3 weeks of atomoxetine treatment, the patient's parent reported a single head tic and a few eye blinking tics in the previous week, and no vocal tics. The parent also reported that the patient's complex tics or compulsive behaviors (which had involved them playing with some doors with their feet in a somewhat stereotypical manner), had also stopped. […] The CGI-S score for the child's tics based on the interview with their parent was […], minimally ill. Based on the same interview, the YGTSS total score for the child was 8. The clinical global impression-improvement (CGI-I) score is a seven-point scale (1=very much improve, 7=very much worse) that summarizes a clinician's overall impression about how much a patient has improved with treatment as compared to where they were at baseline. The CGI-I score for the patient's tics was 1, very much improved.

[1] = after about 2 to 3 weeks of atomoxetine treatment

In the case of `CNCC[C@@H](Oc1ccccc1C)c1ccccc1` [atomoxetine, (R)-(−)-N-methyl-3-(2-methylphenoxy)-3-phenylpropylamine], the “complex tics or compulsive behaviors (mother's report)” value [1] is reported as “stopped”, the “vocal tics in the previous week (mother's report)” value [1] is reported as “no vocal tics” and the “YGTSS (Yale Global Tic Severity Scale) total score” value (person with ADHD and tics, after about 2 to 3 weeks of atomoxetine treatment, scale 0 to 50, baseline about 30) is reported as 8. The “clinical global impression-severity score (CGI-S) for the child's tics” value (person with ADHD and tics, after about 2 to 3 weeks of atomoxetine treatment, seven-point scale (1=normal, 7=very severely ill), baseline 5) was 2a, the “change in tics after starting treatment” value (person with ADHD and tics, after starting on atomoxetine) was “dramatic drop” and the ADHD (person with ADHD and tics, on atomoxetine treatment) was “improved”. The “clinical global impression-improvement (CGI-I) score for the patient's tics” value (person with ADHD and tics, seven-point scale (1=very much improve, 7=very much worse), compared to baseline) was 1.
